Results: paper PMC10856196 (Molecules, 2024)

Assays:
[1] = molecular target: T1, human MOP receptor (Opioid Receptor Mu 1) (Homo sapiens, UniProt P35372); experiment: Tango β-arrestin recruitment in U2OS cells, antagonist mode against DAMGO EC80; reference antagonist; type: cell-based
T1 construct: gene OPRM1; human MOP receptor with linked TEV protease site (Tango OPRM1-bla U2OS)

[2] = molecular target: T1, human MOP receptor (Opioid Receptor Mu 1); experiment: Tango β-arrestin recruitment in U2OS cells, antagonist mode against DAMGO EC80, two concentrations only; type: cell-based; conditions: read-out: % Emax at 10 μM (relative to β-funaltrexamine)

T1 sequence (P35372 whole entry): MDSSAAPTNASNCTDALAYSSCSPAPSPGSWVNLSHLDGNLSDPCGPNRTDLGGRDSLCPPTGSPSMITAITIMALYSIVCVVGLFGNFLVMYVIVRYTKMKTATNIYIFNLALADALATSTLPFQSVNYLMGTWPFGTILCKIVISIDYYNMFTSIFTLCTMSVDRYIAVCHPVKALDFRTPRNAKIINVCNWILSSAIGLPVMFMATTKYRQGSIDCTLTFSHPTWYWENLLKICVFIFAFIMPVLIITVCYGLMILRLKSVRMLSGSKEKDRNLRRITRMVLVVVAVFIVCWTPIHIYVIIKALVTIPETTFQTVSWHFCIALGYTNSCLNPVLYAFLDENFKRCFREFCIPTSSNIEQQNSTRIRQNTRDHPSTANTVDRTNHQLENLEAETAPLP

## COC(=O)/C=C/C(=O)N[C@@H]1CC[C@@]2(O)[C@H]3Cc4ccc(O)c5c4[C@@]2(CCN3CC2CC2)[C@H]1O5 [β-Funaltrexamine]
[1]
  Emax at 10 µM: 100%

## Cc1ccc(N2CCN=C2NC(=O)NC(C)CCc2ccc(F)cc2)cc1 (centres unmarked) [7i, 1-[1-(4-methylphenyl)imidazolin-2-yl]-3-[4-(4-fluorophenyl)but-2-yl]urea]
[2]
  Emax at 10 µM: 48%
